Test results: patent US20250263415A1, “TERTIARY AMIDE DERIVATIVES SUBSTITUTED WITH 4-MEMBERED RING STRUCTURE” (Sumitomo Pharma Co., Ltd., priority 2024, published 2025)
Converted amounts (≈) assume the structure as drawn. Where two headings read alike, the source gives them in different places.

Assays:
G-401 xenograft = assay: Drug efficacy evaluation by intravenous administration using G-401 xenograft mice model; format: in vivo; conditions: G-401 xenograft model
Experimental: G-401 cells (ATCC) were intradermally transplanted into 4-7-week-old BALB/cAnNCrj-nu/nu mice (CAnN.Cg-Foxnl/CrlCrlj, Jackson Laboratory Japan) at 5×10^5 cells/mouse. After confirming the engraftment of G-401 cells 10-40 days after transplantation, the test compound suspended in a solvent such as 10 mmol/L glycine buffer solution (pH 2.0) was administered via the tail vein at least once a week at a dose of 0.015-20 mg/kg. The tumor volume was measured over time from the start of administration, and the effect of tumor volume reduction by administration of the test compound was evaluated. The tumor volume can be calculated from the following equation using the minor axis and major axis of the tumor measured with an electronic caliper (Mitutoyo).
A control administration group administered with only a solvent such as 10 mmol/L glycine buffer solution (pH 2.0) and a test compound administration group were compared, and the antitumor effect was evaluated by calculating T/C from the following equation.

Solubility test = format: physicochemical; conditions: for solubility: aqueous buffer, thermodynamic from solid
Experimental: The solubility was measured for Examples 7, 10, 20, 23, 24, and 30 to 34, Comparative Example 1, and Comparative Example 2. The test compound was added to 10 mmol/L glycine buffer (pH 2.0) and 10 mmol/L citrate buffer (pH 3.0), and the mixture was stored in a thermostatic chamber at 5° C. After standing overnight, the mixture was filtered through a membrane filter, and the concentration of the filtrate was measured by HPLC.
The HPLC measurement conditions are as follows.
HPLC conditions • Column: Acquity UPLC BEH C18, 1.7 μm, 50×2.1 mm • Column temperature: 40° C. • Mobile phase: A: 0.1% trifluoroacetic acid-containing water • B: acetonitrile • A/B (min): 95/5 (0)→0/100 (3.5)→0/100 (4)→95/5 (4.01)→95/5 (5) • Flow rate: 0.8 mL/min • Detection: UV visible detector, measurement wavelength 254 nm • Injection volume: 5 μL or • Column: Acquity UPLC BEH C18, 1.7 μm, 50×2.1 mm • Column temperature: 40° C. • Mobile phase: A: 0.1% trifluoroacetic acid-containing water • B: acetonitrile • A/B (min): • 80/20 (0)→40/60 (3.0)→0/100 (3.5)→0/100 (4)→80/20 (4.01)→80/20 (5) • Flow rate: 0.8 mL/min • Detection: UV visible detector, measurement wavelength 254 nm • Injection volume: 2 μL or • Column: Acquity UPLC BEH C18, 1.7 μm, 50×2.1 mm • Column temperature: 40° C. • Mobile phase: A: 0.1% trifluoroacetic acid-containing water • B: acetonitrile • A/B (min): • 80/20 (0)→40/60 (3.0)→0/100 (3.5)→0/100 (4)→100/0 (4.01)→100/0 (5) • Flow rate: 0.8 mL/min • Detection: UV visible detector, measurement wavelength 254 nm • Injection volume: 3 μL

[1] = Pharmacokinetic study in mice; format: in vivo; conditions: for BA: oral 10 mg/kg vs intravenous 1 mg/kg
Experimental: The test compound was administered to 7-week-old female BALE/c (BALB/cAnN CrlCrlj) mice intravenously (dosage: 1 mg/kg) in a 50% PEG solution (0.01 mol/L HCl) or orally (dosage: 10 mg/kg) in a 0.5% methylcellulose aqueous solution, and blood was collected at the following times: • Intravenous administration: 5 min, 15 min, 30 min, 1 hr, 2 hr, 4 hr, 6 hr, and 24 hr after administration • Oral administration: 15 min, 30 min, 1 hr, 2 hr, 4 hr, 6 hr, and 24 hr after administration
The collected blood was centrifuged at 3000 rpm×10 min using a refrigerated centrifuge set at 4° C., and the obtained plasma was measured by LC-MS. A calibration curve was prepared from the value (peak ratio) obtained by dividing the peak area of the test substance by the peak area of the internal standard substance in MS and the concentration of the plasma calibration curve sample. The concentration in the sample was calculated from the peak ratio and the calibration curve of each sample.

hDAT = hDAT (Homo sapiens (Human), UniProt Q01959); assay: Dopamine receptor inhibitory activity evaluation (binding assay, CHO-S/hDAT membranes); conditions: for Inhibitory effect on dopamine receptors (in words): off-target
Sequence of hDAT (Q01959 whole entry): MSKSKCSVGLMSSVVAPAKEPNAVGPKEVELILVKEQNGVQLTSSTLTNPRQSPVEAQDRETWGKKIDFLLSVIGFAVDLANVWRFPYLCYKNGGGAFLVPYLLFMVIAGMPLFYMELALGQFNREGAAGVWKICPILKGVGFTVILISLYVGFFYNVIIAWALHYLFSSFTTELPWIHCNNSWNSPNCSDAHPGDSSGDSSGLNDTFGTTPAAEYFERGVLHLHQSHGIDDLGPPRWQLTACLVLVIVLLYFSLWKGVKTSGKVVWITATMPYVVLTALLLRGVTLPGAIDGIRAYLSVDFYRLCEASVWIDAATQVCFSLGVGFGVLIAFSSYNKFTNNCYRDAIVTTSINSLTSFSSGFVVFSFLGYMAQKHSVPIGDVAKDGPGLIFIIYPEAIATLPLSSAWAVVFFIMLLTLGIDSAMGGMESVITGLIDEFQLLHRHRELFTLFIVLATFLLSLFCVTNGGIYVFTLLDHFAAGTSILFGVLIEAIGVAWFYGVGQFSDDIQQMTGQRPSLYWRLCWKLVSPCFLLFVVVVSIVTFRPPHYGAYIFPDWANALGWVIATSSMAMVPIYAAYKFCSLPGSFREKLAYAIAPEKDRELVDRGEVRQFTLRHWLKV
Experimental: The binding evaluation assay was outsourced to Eurofins. Specifically, CHO—S/hDAT cells were homogenized in an incubation buffer consisting of 50 mmol/L Tris-HCl, pH 7.4, 100 mmol/L NaCl, 1 μmol/L Leupeptin, and 10 μmol/L PMSF. The membrane pellet obtained by centrifugation was resuspended in the incubation buffer to prepare a membrane preparation. The test compound (1-10 μmol/L DMSO solution), the membrane preparation, and 0.15 nmol/L […] were mixed and incubated at 4° C. for 180 minutes. The cell membrane-[^125I]RTI-55 complex was bound to a GF/B filter mat by vacuum filtration and washed with 50 mmol/L Tris-HCl, pH 7.4. The effect on the receptor was assessed by measuring radioactivity using a scintillation counter.

hSERT = hSERT (Homo sapiens (Human), UniProt P31645); assay: Serotonin receptor inhibitory activity evaluation (binding assay, HEK293/hSERT membranes); conditions: for Inhibitory effect on serotonin receptors (in words): off-target
Sequence of hSERT (P31645 whole entry): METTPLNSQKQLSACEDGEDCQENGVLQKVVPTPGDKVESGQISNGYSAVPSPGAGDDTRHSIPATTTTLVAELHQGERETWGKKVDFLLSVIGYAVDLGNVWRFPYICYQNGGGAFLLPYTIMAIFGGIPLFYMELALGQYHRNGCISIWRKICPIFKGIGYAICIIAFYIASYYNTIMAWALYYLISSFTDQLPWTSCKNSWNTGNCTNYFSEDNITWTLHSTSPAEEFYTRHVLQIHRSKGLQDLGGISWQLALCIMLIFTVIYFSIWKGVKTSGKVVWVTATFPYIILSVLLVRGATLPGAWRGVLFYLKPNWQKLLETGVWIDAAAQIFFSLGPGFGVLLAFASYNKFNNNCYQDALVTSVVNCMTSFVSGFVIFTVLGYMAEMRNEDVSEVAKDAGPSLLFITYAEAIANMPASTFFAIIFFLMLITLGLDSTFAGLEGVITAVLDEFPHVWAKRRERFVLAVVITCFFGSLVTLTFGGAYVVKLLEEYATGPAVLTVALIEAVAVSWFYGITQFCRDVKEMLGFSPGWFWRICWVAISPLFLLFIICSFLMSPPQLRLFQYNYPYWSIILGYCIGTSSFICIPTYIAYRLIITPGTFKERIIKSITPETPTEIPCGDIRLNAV
Experimental: The binding evaluation assay was outsourced to Eurofins. Specifically, HEK293/hSERT cells were homogenized in a buffer consisting of 100 mmol/L NaCl, 1 μmol/L Leupeptin, 10 μmol/L PMSF, and 50 mmol/L Tris-HCl (pH7.4). The membrane pellet obtained by centrifugation was resuspended in an incubation buffer consisting of 50 mmol/L Tris-HCl (pH 7.4), 120 mmol/L NaCl, and 5 mmol/L KCl to prepare a membrane preparation. The test compound (1-10 μmol/L DMSO solution), the membrane preparation, and 0.4 nmol/L [^3H]Paroxetin were mixed and incubated at 25° C. for 60 minutes. The cell membrane-[^3H]Paroxetin complex was bound to a GF/B filter mat by vacuum filtration and washed with 50 mmol/L Tris-HCl (pH 7.4). The effect on the receptor was assessed by measuring radioactivity using a scintillation counter.

recombinant p300 = recombinant p300 (Homo sapiens (Human), UniProt Q09472); assay: HAT activity inhibition experiment (SensoLyte HAT(p300) Assay Kit); format: biochemical; conditions: recombinant p300, acetyl CoA, histone H3 peptide
Sequence of recombinant p300 (Q09472 whole entry): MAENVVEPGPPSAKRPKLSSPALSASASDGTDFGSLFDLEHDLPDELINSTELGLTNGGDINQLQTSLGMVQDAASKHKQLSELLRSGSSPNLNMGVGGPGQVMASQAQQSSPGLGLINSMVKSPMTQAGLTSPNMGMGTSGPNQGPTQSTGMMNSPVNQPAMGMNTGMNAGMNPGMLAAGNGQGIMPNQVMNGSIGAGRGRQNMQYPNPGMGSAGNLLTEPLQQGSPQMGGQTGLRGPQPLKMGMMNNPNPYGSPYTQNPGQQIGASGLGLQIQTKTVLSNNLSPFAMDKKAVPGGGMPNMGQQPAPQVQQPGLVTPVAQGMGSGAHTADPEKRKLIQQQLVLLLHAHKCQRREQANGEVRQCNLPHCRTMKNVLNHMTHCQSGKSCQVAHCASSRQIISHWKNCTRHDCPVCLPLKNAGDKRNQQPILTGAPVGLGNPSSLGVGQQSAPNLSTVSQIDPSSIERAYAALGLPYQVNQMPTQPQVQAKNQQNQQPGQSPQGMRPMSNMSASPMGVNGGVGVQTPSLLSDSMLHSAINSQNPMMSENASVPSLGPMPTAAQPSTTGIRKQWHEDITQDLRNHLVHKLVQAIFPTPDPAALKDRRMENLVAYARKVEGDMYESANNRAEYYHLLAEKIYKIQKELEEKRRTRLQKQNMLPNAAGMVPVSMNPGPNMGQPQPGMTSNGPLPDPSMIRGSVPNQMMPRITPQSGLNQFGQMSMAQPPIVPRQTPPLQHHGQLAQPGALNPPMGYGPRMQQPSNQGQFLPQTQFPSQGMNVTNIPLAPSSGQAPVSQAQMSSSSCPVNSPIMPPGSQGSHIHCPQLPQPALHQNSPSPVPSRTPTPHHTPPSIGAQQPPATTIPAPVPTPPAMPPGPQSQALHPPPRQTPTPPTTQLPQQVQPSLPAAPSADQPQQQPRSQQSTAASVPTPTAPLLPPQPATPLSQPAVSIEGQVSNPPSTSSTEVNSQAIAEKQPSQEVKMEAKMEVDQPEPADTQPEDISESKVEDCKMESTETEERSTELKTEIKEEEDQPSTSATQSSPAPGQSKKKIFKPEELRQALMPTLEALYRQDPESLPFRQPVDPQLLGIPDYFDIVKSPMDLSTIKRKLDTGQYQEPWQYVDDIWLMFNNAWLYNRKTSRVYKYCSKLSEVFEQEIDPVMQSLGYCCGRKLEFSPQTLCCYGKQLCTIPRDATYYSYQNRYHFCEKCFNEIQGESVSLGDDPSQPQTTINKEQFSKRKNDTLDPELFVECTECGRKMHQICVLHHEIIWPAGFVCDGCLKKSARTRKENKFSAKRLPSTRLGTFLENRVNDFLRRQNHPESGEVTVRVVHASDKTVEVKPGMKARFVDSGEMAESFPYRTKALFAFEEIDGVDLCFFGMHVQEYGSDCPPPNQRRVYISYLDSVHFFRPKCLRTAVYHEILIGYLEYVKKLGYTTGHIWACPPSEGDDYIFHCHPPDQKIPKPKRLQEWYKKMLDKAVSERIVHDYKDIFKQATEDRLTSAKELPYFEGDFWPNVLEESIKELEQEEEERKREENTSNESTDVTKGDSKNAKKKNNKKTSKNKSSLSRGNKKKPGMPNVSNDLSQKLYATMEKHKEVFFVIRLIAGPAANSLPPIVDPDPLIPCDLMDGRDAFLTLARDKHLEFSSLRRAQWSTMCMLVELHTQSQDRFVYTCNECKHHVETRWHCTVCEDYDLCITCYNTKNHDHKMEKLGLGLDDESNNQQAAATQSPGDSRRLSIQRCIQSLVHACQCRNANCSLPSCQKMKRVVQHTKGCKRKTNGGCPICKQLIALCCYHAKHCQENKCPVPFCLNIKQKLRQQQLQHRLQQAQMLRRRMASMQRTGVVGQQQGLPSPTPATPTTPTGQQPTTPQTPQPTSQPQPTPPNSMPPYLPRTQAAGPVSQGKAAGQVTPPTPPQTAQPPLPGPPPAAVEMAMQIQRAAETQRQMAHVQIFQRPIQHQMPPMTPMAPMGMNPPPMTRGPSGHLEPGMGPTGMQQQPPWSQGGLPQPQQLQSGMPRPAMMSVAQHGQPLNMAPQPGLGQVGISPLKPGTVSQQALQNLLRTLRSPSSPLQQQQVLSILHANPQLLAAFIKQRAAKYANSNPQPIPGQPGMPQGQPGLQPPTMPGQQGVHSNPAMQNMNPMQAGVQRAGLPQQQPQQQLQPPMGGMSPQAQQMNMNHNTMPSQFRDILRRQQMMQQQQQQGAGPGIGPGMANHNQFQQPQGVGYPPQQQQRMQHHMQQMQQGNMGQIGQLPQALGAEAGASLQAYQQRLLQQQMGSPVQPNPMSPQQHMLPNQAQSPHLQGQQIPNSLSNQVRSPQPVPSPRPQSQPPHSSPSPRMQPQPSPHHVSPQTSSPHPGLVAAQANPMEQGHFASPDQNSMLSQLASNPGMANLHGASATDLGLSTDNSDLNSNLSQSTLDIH
Experimental: The HAT activity inhibitory ability of HAT inhibitors was evaluated using SensoLyte HAT(p300) Assay Kit (ANASPEC, AS-72172). Specifically, 7.5 μL of the compound of Examples […] diluted with assay buffer was added to 7.5 μL of recombinant p300 solution diluted 10 times with assay buffer, and the mixture was incubated at room temperature for 10 minutes. 7.5 μL of acetyl CoA solution diluted 10 times with assay buffer and 15 μL of histone H3 peptide diluted 10 times with assay buffer were added thereto, and the mixture was incubated at 37° C. for 30 minutes. 37.5 μL of Stop Solution was added to stop the reaction. 75 μL of p300 Developer solution diluted 50 times with assay buffer was added, and the mixture was incubated at room temperature for 30 minutes under light-shielded conditions. The fluorescence at 513 nm when irradiated with 389 nm excitation light was measured using a multiplate reader.

G-401 cells = assay: Cell proliferation inhibition experiment using G-401 cells; format: cell-based
Experimental: G-401 cells (derived from malignant rhabdoid tumor) were obtained from the American Type Culture Collection (ATCC). G-401 cells were cultured in McCoy's 5A medium containing 10% fetal bovine serum and 1% penicillin/streptomycin under conditions of 37° C. and 5% CO2.
500 cells per well were seeded in a 384-well plate. One day after seeding, Examples 1 to 35 were added so that the final concentration of DMSO was 0.1%, and the cells were cultured for 3 days. After the culture was completed, the cell viability was measured using CellTiter-Glo Luminescent Cell Viability Assay (Promega, G7570).

For CNC(=O)Cn1cc(-c2ccc3c(c2)[C@H](F)C[C@]32NC(=O)N(CC(=O)N(Cc3ccc(F)cc3)[C@@H](C)C(F)(F)F)C2=O)cn1 [Comparative Example 1, reference compound], the “Antitumor effect, intravenous administration (in words)” value (G-401 xenograft) was “no antitumor effect”.
In the case of CN1CC(N(Cc2ccc(F)cn2)C(=O)CN2C(=O)N[C@]3(C[C@@H](F)c4cc(-c5cnn(C6COC6)c5)ccc43)C2=O)(C(F)(F)F)C1 [Example 24, 2-{(1′S,3′R)-3′-fluoro-5′-[1-(oxetan-3-yl)-1H-pyrazol-4-yl]-2,5-dioxo-2′,3′-dihydrospiro[imidazolidine-4,1′-inden]-1-yl}-N-[(5-fluoropyridin-2-yl)methyl]-N-[1-methyl-3-(trifluoromethyl)azetidin-3-yl]acetamide], the “Solubility (in words)” value (Solubility test; pH 2.0 and pH 3.0 buffers) is reported as “high solubility”, the “Pharmacokinetics (in words)” value [1] is reported as “excellent pharmacokinetics” and the BA [1] is reported as 47.0%. For the same compound, the “Antitumor effect, intravenous administration (in words)” value (G-401 xenograft) was “strong antitumor effects”, the “Inhibitory effect on dopamine receptors (in words)” value (hDAT) was “did not show strong inhibitory activity” and the “Inhibitory effect on serotonin receptors (in words)” value (hSERT) was “did not show strong inhibitory activity”.
Compound CN1CC(N(Cc2ccc(F)cc2)C(=O)CN2C(=O)N[C@]3(CCc4cc(-c5cnn(C)c5)ccc43)C2=O)(C(F)(F)F)C1 [Example 12, N-[(4-fluorophenyl)methyl]-2-[(1′S)-5′-(1-methyl-1H-pyrazol-4-yl)-2,5-dioxo-2′,3′-dihydrospiro[imidazolidine-4,1′-inden]-1-yl]-N-[1-methyl-3-(trifluoromethyl)azetidin-3-yl]acetamide] has a BA [1] of 30.0%.
Compound O=C1N[C@]2(CCc3cc(-c4cnn(C5CN(C6COC6)C5)c4)ccc32)C(=O)N1CC(=O)N(Cc1ccc(F)cn1)C1(C(F)(F)F)CC(F)(F)C1 [Example 8, N-[3,3-difluoro-1-(trifluoromethyl)cyclobutyl]-N-[(5-fluoropyridin-2-yl)methyl]-2-[(1′S)-5′-{-[1-(oxetan-3-yl)azetidin-3-yl]-1H-pyrazol-4-yl}-2,5-dioxo-2′,3′-dihydrospiro[imidazolidine-4,1′-inden]-1-yl]acetamide] has an IC50 (recombinant p300) of 17.2 nM.
For CN1CC(N(Cc2ccc(F)cn2)C(=O)CN2C(=O)N[C@]3(C[C@@H](F)c4cc(-c5cnn(CC6COC6)c5)ccc43)C2=O)(C(F)(F)F)C1 [Example 25, 2-[(1′S,3′R)-3′-fluoro-5′-{1-[(oxetan-3-yl)methyl]-1H-pyrazol-4-yl}-2,5-dioxo-2′,3′-dihydrospiro[imidazolidine-4,1′-inden]-1-yl]-N-[(5-fluoropyridin-2-yl)methyl]-N-[1-methyl-3-(trifluoromethyl)azetidin-3-yl]acetamide], the “Inhibitory effect on dopamine receptors (in words)” value (hDAT) was “did not show strong inhibitory activity” and the “Inhibitory effect on serotonin receptors (in words)” value (hSERT) was “did not show strong inhibitory activity”.
In the case of CN1CC(N(Cc2ccc(F)cc2)C(=O)CN2C(=O)N[C@]3(C[C@@H](F)c4cc(-c5cnn(C6CCOCC6)c5)ccc43)C2=O)(C(F)(F)F)C1 [Example 19, 2-{(1′S,3′R)-3′-fluoro-5′-[1-(oxan-4-yl)-1H-pyrazol-4-yl]-2,5-dioxo-2′,3′-dihydrospiro[imidazolidine-4,1′-inden]-1-yl}-N-[(4-fluorophenyl)methyl]-N-[1-methyl-3-(trifluoromethyl)azetidin-3-yl]acetamide], the “Cell proliferation inhibitory effect on G-401 cells (in words)” value (G-401 cells) is reported as “strong cell proliferation inhibitory effect”.
With O=C1N[C@]2(C[C@@H](F)c3cc(-c4cnn(C5CN(C6COC6)C5)c4)ccc32)C(=O)N1CC(=O)N(Cc1ccc(F)cn1)C1(C(F)(F)F)CC(F)(F)C1 [Example 9, N-[3,3-difluoro-1-(trifluoromethyl)cyclobutyl]-2-[(1′S,3′R)-3′-fluoro-5′-{1-[1-(oxetan-3-yl)azetidin-3-yl]-1H-pyrazol-4-yl}-2,5-dioxo-2′,3′-dihydrospiro[imidazolidine-4,1′-inden]-1-yl]-N-[(5-fluoropyridin-2-yl)methyl]acetamide] the IC50 (recombinant p300) was 0.6 nM.
With CNC(=O)Nc1ccc2c(c1)CC[C@@]21OC(=O)N(CC(=O)N2[C@@H](C)CC[C@H]2c2cc(F)c(F)c(F)c2)C1=O [Comparative Example 2, reference compound] the “Solubility in pH 3.0 buffer” value (Solubility test; 10 mmol/L citrate buffer (pH 3.0), 5° C., overnight) was 0.005 mg/mL, the “Solubility in pH 2.0 buffer” value (Solubility test; 10 mmol/L glycine buffer (pH 2.0), 5° C., overnight) was 0.004 mg/mL and the solubility (Solubility test; 10 mmol/L citrate buffer (pH 3.0), 5° C., overnight, read-out: Solubility in pH 3.0 buffer) was 5 µg/mL (≈ 9.43 µM). The solubility (Solubility test; 10 mmol/L glycine buffer (pH 2.0), 5° C., overnight, read-out: Solubility in pH 2.0 buffer) was 4 µg/mL (≈ 7.54 µM), the inhibition at 10 µM (hDAT; 10 μM, CHO-S/hDAT membrane preparation) was 88% and the “Inhibitory effect on dopamine receptors (in words)” value (hDAT) was “strong inhibitory effect”. For the same compound, the inhibition at 10 µM (hSERT; 10 μM, HEK293/hSERT membrane preparation) was 76% and the “Inhibitory effect on serotonin receptors (in words)” value (hSERT) was “strong inhibitory effect”.
